Tests used:
Assay type in all cases: physicochemical
[1] = Gelation temperature (Tg/Tgel) of diluent and reconstituted formulation, initial and on stability storage
Protocol: The target for the 2 compartment formulations: • Gelation temperature 30-37 C • Gelation time—less than 5 minutes • Reconstitution time—less than 1 minutes • Viscosity at RT—less than 3000 cps • Reconstituted formulation should be stable for at least 3 hours
To understand the reproducibility of the gelation temperature, multiple batches were prepared and stability was monitored. In addition to this in one of batch, source of Mesalamine is varied to understand its impact on the various physical parameters.
During the stability study, only gelation temperature and the pH of the reconstituted formulation was monitored.
Formulation with 2% Lipoid S 100 has been considered as the lead formula. Reproducible batches with batch size (3-4 Kg) were manufactured and stability was monitored. These batches were packed into different packaging material MoC to understand its impact on the physical properties.

[2] = Stability of one-part formulations stored at 60° C.; details: after preparation of one-part formulations; oxidation in an aqueous solution
[3] = Excipient compatibility study (gelation temperature, constant 15% poloxamer 407); details: change from initial
Protocol: Excipients were studied for compatibility. Constant—15% poloxamer 407 was used. The compatibility study was carried out with the following excipients: Mesalamine—6.67%; Transcutol—10%; EDTA—0.1%; Polocarbophil—0.25%+Tris—0.15%; TPGS—0.2%; NaCl—0.5%; Sodium metabisulfite—0.2%; PVA 30 CPS—1%; Kollidon 30-1%. The following lipids were investigated: DSPC—0.5%+DPCC—0.5%; Phospholipon 90G—1%; Lipoid S 100-1%; Phospholipon 90H—1%; Lecithin—1%. The following combination of poloxamer grades was also studied Poloxamer 188-1.5, 2.5 and 5%. No or marginal impact (1-2° C. from initial) was found for the following excipients: Transcutol, EDTA, TPGS, NaCl, and PVA. Moderate impact (2-5° C. from initial) was found with Mesalamine. […] No or marginal impact (1-2° C. from initial) was found in combinations with DSPC+DPCC, Phospholipon 90 G, and Lipoid S 100. […] All poloxamer combinations were stable for 28 days.

Cc1cc(C(C)(C)C)c(O)c(C(C)(C)C)c1 [BHT]
effect of additive on gelation temperature [1]: lowers the gelation temperature

Nc1ccc(O)c(C(=O)O)c1 [Mesalamine, 5-aminosalicylic acid]
time to turn brown [2]: ≤ 3 days

O=S([O-])S(=O)(=O)[O-].[Na+].[Na+] [sodium metabisulfite]
impact on gelation temperature [3]: Significant impact

Reference: US20250090552A1, “MESALAMINE PHARMACEUTICAL FORMULATIONS AND METHODS OF USE THEREOF” (Intact Therapeutics, Inc., priority 2022, published 2025)
